Converted amounts (≈) assume the structure as drawn.
Experiments:
Assay type in all cases: functional
Staphylococcus aureus [1] = experiment: Antibacterial activity against Staphylococcus aureus UC9218
Staphylococcus aureus [2] = experiment: Antibacterial activity against Staphylococcus aureus UC9218 in presence of 10% human serum
Staphylococcus aureus [3] = experiment: Antibacterial activity against Staphylococcus aureus RN4220 at 100 uM by transcription-translation assay

Row | MIC (Staphylococcus aureus [1]) | MIC (Staphylococcus aureus [2]) | SMILES | inhibition at 100 µM (Staphylococcus aureus [3])
1 | 2 µg/mL (≈ 3.92 µM) | 128 µg/mL | Cn1c(C(=O)n2[nH]c(=O)c3cc(Br)ccc32)cc2cccc(S(=O)(=O)c3ccccc3)c21 | –
2 | 4 µg/mL (≈ 8.76 µM) | 64 µg/mL | Cn1c(C(=O)n2[nH]c(=O)c3cc(C#N)ccc32)cc2cccc(S(=O)(=O)c3ccccc3)c21 | –
3 | 64 µg/mL (≈ 202 µM) | > 128 µg/mL | Cn1c(C(=O)n2[nH]c(=O)c3cc(C#N)ccc32)cc2ccccc21 | 49%
4 | 16 µg/mL (≈ 36.2 µM) | > 128 µg/mL | N#Cc1ccc2c(c1)c(=O)[nH]n2C(=O)c1cc2cccc(S(=O)(=O)c3ccccc3)c2[nH]1 | –
5 | > 128 µg/mL | > 128 µg/mL | N#Cc1ccc2c(c1)c(=O)[nH]n2C(=O)c1cncc(SCc2ccccc2)n1 | 7%
6 | 16 µg/mL (≈ 41.6 µM) | > 128 µg/mL | O=C(c1cc(-c2ccccc2)on1)n1[nH]c(=O)c2cc(Br)ccc21 | 42%
7 | 64 µg/mL (≈ 212 µM) | > 128 µg/mL | N#Cc1ccc2c(c1)c(=O)[nH]n2C(=O)c1cc2ccccc2[nH]1 | 99%
8 | > 128 µg/mL | > 128 µg/mL | N#Cc1ccc2c(c1)c(=O)[nH]n2C(=O)c1cnc(SCc2ccccc2)cn1 | 22%
9 | 4 µg/mL (≈ 7.51 µM) | 128 µg/mL | O=C(c1cccc(S(=O)(=O)N2CCc3cc(Cl)ccc32)c1)n1[nH]c(=O)c2cc(Br)ccc21 | 20%
10 | > 128 µg/mL | > 128 µg/mL | CN(c1ccc(Cl)cc1)S(=O)(=O)c1cc(Br)cc(C(=O)n2[nH]c(=O)c3cc(Br)ccc32)c1 | 29%
11 | > 128 µg/mL | > 128 µg/mL | O=C(c1cccc(S(=O)(=O)N2CCOCC2)c1)n1[nH]c(=O)c2cc(Br)ccc21 | 3%
12 | > 128 µg/mL | > 128 µg/mL | O=C(c1cccc(S(=O)(=O)N2CCOCC2)c1)n1[nH]c(=O)c2cc(Cl)ccc21 | 5%
13 | 64 µg/mL (≈ 155 µM) | 64 µg/mL | N#Cc1ccc2c(c1)c(=O)[nH]n2C(=O)c1cccc(S(=O)(=O)N2CCOCC2)c1 | 10%
14 | > 128 µg/mL | > 128 µg/mL | CC(C)Sc1ccc(C(=O)n2[nH]c(=O)c3cc(Br)ccc32)cn1 | 49%
15 | 16 µg/mL (≈ 32.8 µM) | > 128 µg/mL | O=C(c1ccc(S(=O)(=O)N2CCc3cc(Cl)ccc32)cc1)n1[nH]c(=O)c2cc(Cl)ccc21 | 61%
16 | 8 µg/mL (≈ 16.4 µM) | > 128 µg/mL | O=C(c1ccc(S(=O)(=O)N2CCc3cc(Cl)ccc32)cc1)n1[nH]c(=O)c2ccc(Cl)cc21 | 86%
17 | 8 µg/mL (≈ 15.3 µM) | > 128 µg/mL | O=C(c1cccc(S(=O)(=O)N2CCc3cc(Cl)ccc32)c1)n1[nH]c(=O)c2cc(C(F)(F)F)ccc21 | 62%
18 | 8 µg/mL (≈ 15 µM) | > 128 µg/mL | O=C(c1cccc(S(=O)(=O)N2CCc3cc(Cl)ccc32)c1)n1[nH]c(=O)c2ccc(Br)cc21 | 67%
19 | 8 µg/mL (≈ 16.1 µM) | 128 µg/mL | O=C(c1cccc(S(=O)(=O)N2CCc3ccccc32)c1)n1[nH]c(=O)c2cc(Br)ccc21 | 52%
20 | 32 µg/mL (≈ 72.5 µM) | > 128 µg/mL | O=C(c1cncc(SCc2ccccc2)n1)n1[nH]c(=O)c2cc(Br)ccc21 | 28%
21 | > 128 µg/mL | > 128 µg/mL | O=C(c1cnc(SCc2ccccc2)cn1)n1[nH]c(=O)c2cc(Br)ccc21 | 5%
22 | 16 µg/mL (≈ 32.2 µM) | 128 µg/mL | O=C(c1cc2cccc(S(=O)(=O)c3ccccc3)c2[nH]1)n1[nH]c(=O)c2cc(Br)ccc21 | –
23 | 64 µg/mL (≈ 134 µM) | > 128 µg/mL | N#Cc1ccc2c(c1)c(=O)[nH]n2C(=O)c1ccc(S(=O)(=O)N2CCc3cc(Cl)ccc32)cc1 | 5%
24 | 0.5 µg/mL (≈ 1.12 µM) | 8 µg/mL | N#Cc1ccc2c(c1)c(=O)[nH]n2C(=O)c1cccc(S(=O)(=O)N2CCc3ccccc32)c1 | 13%
25 | 8 µg/mL (≈ 15 µM) | > 128 µg/mL | O=C(c1ccc(S(=O)(=O)N2CCc3cc(Cl)ccc32)cc1)n1[nH]c(=O)c2cc(Br)ccc21 | 56%
26 | 8 µg/mL (≈ 16.4 µM) | > 128 µg/mL | O=C(c1cccc(S(=O)(=O)N2CCc3cc(Cl)ccc32)c1)n1[nH]c(=O)c2ccc(Cl)cc21 | 78%
27 | 4 µg/mL (≈ 8.19 µM) | 128 µg/mL | O=C(c1cccc(S(=O)(=O)N2CCc3cc(Cl)ccc32)c1)n1[nH]c(=O)c2cc(Cl)ccc21 | 80%
28 | 16 µg/mL (≈ 34.2 µM) | > 128 µg/mL | Cc1ccc2c(c1)c(=O)[nH]n2C(=O)c1cccc(S(=O)(=O)N2CCc3cc(Cl)ccc32)c1 | 49%
29 | 4 µg/mL (≈ 7.44 µM) | > 128 µg/mL | O=C(c1cccc(S(=O)(=O)N2CCc3cc(Cl)ccc32)c1)n1[nH]c(=O)c2cc(OC(F)(F)F)ccc21 | 78%
30 | > 128 µg/mL | > 128 µg/mL | CN(c1ccc(Cl)cc1)S(=O)(=O)c1cccc(C(=O)n2[nH]c(=O)c3cc(Br)ccc32)c1 | 55%
